melting point [°C] | SMILES
184 to 185 | C1=Cc2cccnc2N(C2CC2)c2ncccc21
181 to 183 | O=C(O)Cc1c(C(=O)c2ccc(F)cc2)[nH]c2cc(Cl)ccc12
144 | Cc1ccc(C#CC(C)N(O)C(N)=O)cc1 (stereo not drawn)
256 to 257 | Cc1nc2c3ccccc3ccn2c1Cc1nnn[nH]1
54 to 57 | CCOc1ccc(CCC=[N+]([O-])C(C)(C)C)cc1
253 to 256 | CC1CCCN(C(=O)C2Cc3cc(O)ccc3N2c2ccc(=O)n(C)n2)C1 (stereo not drawn)
> 275 | Cc1nn(C)c2nc(N)nc(N)c2c1=O
140 to 142 | CC(C)CC(C=CCC(N)=O)NC(=O)C1CCCN1C(=O)OCc1ccccc1 (stereo not drawn)
218 to 222 | CN(C)CCCC(=O)Nc1nc2c(s1)-c1c(cnn1-c1ccccc1)C2
65 to 67 | CN(C(=S)Oc1ccc(Cl)c(C(C)(C)C)c1)c1ccccc1
146 to 148 | COc1cc(OC)cc(N2CCN(C(=S)Nc3cc(C(C)O)c(C)cc3OC)CC2)c1 (stereo not drawn)
140 to 142 | CCn1c(C)nc2cc(S(C)(=O)=O)ccc21
129 to 133 | C[C@H]1Oc2ccc(F)cc2N(C)C(=O)[C@H]1NC(=O)OC(C)(C)C
100 to 102 | CC(C)(C)c1ccc(Cn2ccc3ccc(-c4ccc(OC(F)(F)F)cc4)cc32)cc1
240 to 245 | CC(C)n1c(=O)nc(-c2ccc(N(C)C)cc2)c2cc3c(cc21)OCO3
126 to 127 | COc1ccc2c(c1)C1(CCCC1)C(O)(CC#N)CC2 (stereo not drawn)
68 to 70 | NCCCN1CCOC(c2ccccc2)(c2ccccc2)CC1
55.5 to 57 | CC1=C2OCOC2CC(C)(C)C1=O (stereo not drawn)
160 to 162 | CC(C)(CCCCOc1cc(-c2ccccc2)cc(-c2ccccc2)n1)c1nnn[nH]1
> 320 | Cc1nccc2[nH]c(=O)c(O)cc12
113 to 115 | CC(=O)OCCn1c(=O)sc2ccc(-c3nc4ccccn4c3C)cc21
131 to 132 | COc1ccc(C(C#N)Nc2ccc(S(C)(=O)=O)cc2)cc1 (stereo not drawn)
147 to 148 | Cn1cc(-c2ccccc2)c(=O)c(-c2cccc(CC3CCCCC3)c2)c1
242 | Cc1cc2n(C)c3ncccc3c(=O)n2n1

melting point [°C] | SMILES
110 | COc1cc2c(cc1Nc1ncc(Cl)c(Nc3ccccc3S(=O)(=O)N3CCCC3)n1)CCN(CCO)CC2
107 to 108 | CCOC(=O)c1sc(SC(C)C)c2c1CCC(Br)C2=O (stereo not drawn)
175 to 176 | Cc1nc(N2CCN(Cc3cccc(C(F)(F)F)c3)C2=O)sc1C(=O)NCc1cccnc1
168 to 170 | CC(C)(C)c1cc(SCCOC(=O)c2cc(C(C)(C)C)c(OC(=O)c3cc(C(C)(C)C)c(O)c(C(C)(C)C)c3)c(C(C)(C)C)c2)cc(C(C)(C)C)c1O
96 to 97 | COc1ccc2cc(C(C)=O)cc(F)c2c1
105 to 107 | CCc1c(C(C#N)c2cc(C)cc(C)c2)[nH]c(=O)[nH]c1=O (stereo not drawn)
110 to 111 | COC(=O)c1cc(-c2nnn(Cc3ccc(OC)cc3)n2)ccc1OC
130 to 132 | COc1cc2c(cc1Cl)CCN(C)CC2c1ccc(I)cc1 (stereo not drawn)
64.5 to 65.5 | CCCCCCC(N)(c1ccccc1)C(C)(C)O (stereo not drawn)
107 to 108 | O=C1OCc2ccc(CO)cc21
87 to 90 | CN(CC(=O)c1ccc(Br)cc1)C(=O)OC(C)(C)C
104 to 105 | CCOC(=O)c1c(-c2ccccc2)c(-c2ccc(F)cc2)cn1C(C)C
243 to 244 | N#Cc1ccc2oc(CCc3cc4cc(C#N)ccc4o3)cc2c1
> 300 | OCCn1cnc2c(O)nc3ccccc3c21
95 to 97 | Cc1ccc(S(=O)(=O)Oc2ccc(C=O)cc2OS(=O)(=O)c2ccc(C)cc2)cc1
119 to 120 | CCOC(=O)c1c(-c2ccccc2)c2cc(Cl)ccc2n1CC#N
160 to 161 | Cc1nc(-n2cnn(CC3CC3(F)F)c2=O)sc1C(=O)NCc1cccnc1 (stereo not drawn)
177 to 178 | COc1ccc(C(=O)O)cc1OC(C)(C)C
86 to 88 | COC(=O)c1cc2ccoc2s1
> 250 | CCOC(=O)CNC(=O)Nc1ccc2oc3c(OC)ccc(C(=O)Nc4c(Cl)cncc4Cl)c3c2c1
61.5 to 62.5 | O=C=Nc1ccc(OCc2nc(Cl)ccc2Cl)cc1
66 to 69 | CC(O)(c1nc2cc([N+](=O)[O-])ccc2s1)C(F)(F)F (stereo not drawn)
121 to 122 | Cc1oc(-c2ccccc2)nc1COc1ccc(CO)cn1
121 to 123 | O=C(O)CCCCCCCn1cc(-c2ccccc2)c(-c2ccccc2)nc1=O

melting point [°C] | SMILES
163 | CSc1ccc(N2CCN(CCCOc3ccc(C4=NCCO4)cc3)CC2)nn1
62 | CCCO[C@@H]1C[C@@H](C(=O)NC)N(S(=O)(=O)c2ccc(Cl)c(CBr)c2Cl)C1
39 to 40 | COCc1cc(-c2c(S(C)(=O)=O)ccc(C(=O)C3C(=O)CCCC3=O)c2Cl)no1
212 to 214 | c1ccc2[nH]c(-c3ccsc3)cc2c1
116 to 117 | COc1c(Cl)ccnc1C(=O)O
122 to 126 | CC(CC(=O)O)C(=O)c1ccc(O)cc1 (stereo not drawn)
199 | O=C(c1ccc(-c2cnc3c(c2)N(Cc2c(Cl)cccc2Cl)C(=O)CN3)cc1)N1CCC(N2CCCC2)CC1
189 to 190 | Cn1ncnc1COc1nn2c(-c3ccccc3F)nnc2cc1-c1cccs1
148 to 149 | COCCN(C)c1nnc(-c2ccc(-c3ccccc3)nc2)n1-c1ccccc1C#N
65 | CCCCCCCCCCCCCCCCCCN=C=NCCCCCCCCCCCCCCCCCC
184 to 185 | CN(C)c1ncnc2c(-c3ccncc3)cnn12
120 to 122 | COC(=O)c1cn(-c2ccc(OC)c(OC3CC4CCC3C4)c2)c2ccccc12 (stereo not drawn)
141 to 142 | CN1CCC(=C2c3ccccc3CCc3sc(Br)cc32)CC1
285 to 287 | O=C(CCC12CCC(=O)N1C(=O)CC2)Nc1ccncc1
160 to 165 | COC(=O)C=C(c1ccccc1)c1ccc2nc(N)n(S(=O)(=O)C(C)C)c2c1
55 to 56 | COc1cccc(N(C)C(=O)C(C)Br)c1 (stereo not drawn)
192 | COc1ccccc1NC(C(N)=O)c1c(Cl)cccc1Cl (stereo not drawn)
116 to 117 | CCOC(=O)c1cn(Cc2ccccc2)nc1N(Cc1ccccc1)C(=O)Nc1ccccc1
85 to 88 | COc1ccc(C(F)(F)F)cc1-c1ccc(S(=O)(=O)N2c3ccccc3CC2C(=O)NCCOc2ccc(CC(=O)O)cc2)cc1 (stereo not drawn)
145 to 147 | Cc1ccccc1-c1nn(C(C)(C)C(=O)N(C)C)cc1C
275 | COc1cccc(SSc2cccc(OC)c2S(=O)(=O)NC(C)(C)C)c1S(=O)(=O)NC(C)(C)C
82 to 84 | COc1ccc2cc([C@H](C)C(=O)NOCC(=O)OC(C)(C)C)ccc2c1
191 to 192 | CCn1c(C(=O)OC)c(-c2ccc(OC)c(OC)c2)c2cc(OC)c(OC)cc21

SMILES | melting point [°C]
O=C(CNC(=O)c1ccccc1)NC1CCN(CCc2c[nH]c3ccccc23)CC1 | 236 to 240
N#Cc1nn(-c2c(Cl)cc(C(F)(F)F)cc2Cl)c(-n2cccn2)c1S(=O)(=O)C(F)(F)F | 191 to 193
